Test results reported in ChEMBL document CHEMBL1149386, “Design and synthesis of 5-aryl-pyridone-carboxamides as inhibitors of anaplastic lymphoma kinase” (J Med Chem, 2006).
Values belong to the compound of their own block, whether it stands above or below them.

Key:
[1] = target: T1, Receptor-type tyrosine-protein kinase FLT3 (Homo sapiens, UniProt P36888); test: Inhibitory activity against Flt3
T1 sequence (P36888 whole entry): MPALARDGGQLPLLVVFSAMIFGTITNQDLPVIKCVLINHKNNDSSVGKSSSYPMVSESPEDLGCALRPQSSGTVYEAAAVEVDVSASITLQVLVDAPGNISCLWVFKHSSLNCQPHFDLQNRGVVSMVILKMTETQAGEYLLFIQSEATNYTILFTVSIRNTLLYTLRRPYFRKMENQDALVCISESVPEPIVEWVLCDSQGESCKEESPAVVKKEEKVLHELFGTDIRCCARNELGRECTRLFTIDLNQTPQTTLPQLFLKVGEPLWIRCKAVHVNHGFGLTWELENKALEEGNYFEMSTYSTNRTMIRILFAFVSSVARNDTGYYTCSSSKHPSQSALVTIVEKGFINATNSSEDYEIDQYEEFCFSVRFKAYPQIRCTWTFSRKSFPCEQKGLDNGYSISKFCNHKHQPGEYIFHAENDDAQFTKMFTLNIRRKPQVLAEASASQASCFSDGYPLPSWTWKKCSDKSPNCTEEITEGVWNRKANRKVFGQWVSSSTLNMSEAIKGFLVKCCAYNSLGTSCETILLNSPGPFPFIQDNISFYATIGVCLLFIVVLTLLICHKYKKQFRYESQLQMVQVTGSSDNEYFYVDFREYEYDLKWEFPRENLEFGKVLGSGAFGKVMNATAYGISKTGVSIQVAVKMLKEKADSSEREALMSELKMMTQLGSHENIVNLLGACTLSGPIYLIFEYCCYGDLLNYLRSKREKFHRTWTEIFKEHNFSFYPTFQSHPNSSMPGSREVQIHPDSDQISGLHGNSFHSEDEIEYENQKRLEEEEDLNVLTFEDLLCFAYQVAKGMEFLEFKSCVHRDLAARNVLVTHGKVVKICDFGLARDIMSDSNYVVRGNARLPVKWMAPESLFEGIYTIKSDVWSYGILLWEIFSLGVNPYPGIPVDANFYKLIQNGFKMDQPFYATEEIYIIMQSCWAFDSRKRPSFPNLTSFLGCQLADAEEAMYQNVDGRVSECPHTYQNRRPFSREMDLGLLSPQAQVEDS

[2] = target: Tyrosine-protein kinase ABL1 (Homo sapiens, UniProt P00519); test: Inhibitory activity against Abl
[3] = target: Proto-oncogene tyrosine-protein kinase Src (Homo sapiens, UniProt P12931); test: Inhibitory activity against Src
Bcr/Abl fusion protein = Bcr/Abl fusion protein (Homo sapiens, UniProt P00519); test: Antiproliferative activity against human BCR-ABL positive chronic myeloid leukemia K562 cell line; format: functional, cell-based
[4] = target: Insulin-like growth factor 1 receptor (Homo sapiens, UniProt P08069); test: Inhibitory activity against IGF1R
BaF3 = test: Antiproliferative activity against parental interleukin-3-dependent BaF3 cell line; format: functional, cell-based; settings: Mus musculus
[5] = target: ALK tyrosine kinase receptor (Homo sapiens, UniProt Q9UM73); test: Inhibitory activity against ALK
Jurkat = test: Antiproliferative activity against human T-cell leukemia Jurkat cell line; format: functional, cell-based
Insulin receptor = Insulin receptor (Homo sapiens, UniProt P06213); test: Inhibitory activity against IRK
Chain of Insulin receptor (P06213 28-758 limits assumed): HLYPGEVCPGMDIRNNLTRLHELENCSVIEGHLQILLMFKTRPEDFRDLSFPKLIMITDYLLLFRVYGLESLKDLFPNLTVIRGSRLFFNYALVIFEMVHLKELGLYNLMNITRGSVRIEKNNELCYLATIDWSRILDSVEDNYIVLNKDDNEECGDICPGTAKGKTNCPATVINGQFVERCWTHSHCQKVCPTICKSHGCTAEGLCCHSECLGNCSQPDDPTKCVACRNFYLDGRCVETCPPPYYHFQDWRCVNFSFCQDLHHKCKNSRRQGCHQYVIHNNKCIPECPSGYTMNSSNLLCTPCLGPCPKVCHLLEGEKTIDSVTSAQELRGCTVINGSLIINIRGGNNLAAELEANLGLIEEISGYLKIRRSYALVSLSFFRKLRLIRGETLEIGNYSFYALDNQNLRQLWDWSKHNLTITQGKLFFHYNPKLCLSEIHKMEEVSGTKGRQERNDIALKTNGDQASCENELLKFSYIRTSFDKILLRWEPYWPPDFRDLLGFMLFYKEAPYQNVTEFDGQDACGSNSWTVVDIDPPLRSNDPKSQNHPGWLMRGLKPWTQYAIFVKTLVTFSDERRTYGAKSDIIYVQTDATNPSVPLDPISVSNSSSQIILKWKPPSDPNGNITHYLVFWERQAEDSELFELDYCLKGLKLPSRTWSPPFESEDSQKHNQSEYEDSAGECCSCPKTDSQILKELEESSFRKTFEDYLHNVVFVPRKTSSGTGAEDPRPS
Chain of Insulin receptor (P06213 763-1382 limits assumed): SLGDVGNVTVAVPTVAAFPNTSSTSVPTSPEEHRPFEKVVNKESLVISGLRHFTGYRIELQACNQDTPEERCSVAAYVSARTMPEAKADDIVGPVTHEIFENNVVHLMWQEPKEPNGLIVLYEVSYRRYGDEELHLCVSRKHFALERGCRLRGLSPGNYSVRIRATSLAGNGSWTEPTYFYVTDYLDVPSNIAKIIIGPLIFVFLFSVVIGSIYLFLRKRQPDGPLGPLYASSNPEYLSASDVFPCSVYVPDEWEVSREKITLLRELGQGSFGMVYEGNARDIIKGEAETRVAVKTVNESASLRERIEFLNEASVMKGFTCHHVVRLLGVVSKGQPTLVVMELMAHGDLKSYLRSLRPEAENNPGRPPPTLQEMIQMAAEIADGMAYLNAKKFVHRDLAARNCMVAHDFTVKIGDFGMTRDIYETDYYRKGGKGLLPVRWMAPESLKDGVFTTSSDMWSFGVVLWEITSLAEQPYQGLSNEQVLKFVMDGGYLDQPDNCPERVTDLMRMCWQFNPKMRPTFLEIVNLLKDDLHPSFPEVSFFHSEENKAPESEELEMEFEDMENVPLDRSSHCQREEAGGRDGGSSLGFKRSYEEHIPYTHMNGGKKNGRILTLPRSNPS

Chain of Bcr/Abl fusion protein (P00519 whole entry, the tested form may be a part): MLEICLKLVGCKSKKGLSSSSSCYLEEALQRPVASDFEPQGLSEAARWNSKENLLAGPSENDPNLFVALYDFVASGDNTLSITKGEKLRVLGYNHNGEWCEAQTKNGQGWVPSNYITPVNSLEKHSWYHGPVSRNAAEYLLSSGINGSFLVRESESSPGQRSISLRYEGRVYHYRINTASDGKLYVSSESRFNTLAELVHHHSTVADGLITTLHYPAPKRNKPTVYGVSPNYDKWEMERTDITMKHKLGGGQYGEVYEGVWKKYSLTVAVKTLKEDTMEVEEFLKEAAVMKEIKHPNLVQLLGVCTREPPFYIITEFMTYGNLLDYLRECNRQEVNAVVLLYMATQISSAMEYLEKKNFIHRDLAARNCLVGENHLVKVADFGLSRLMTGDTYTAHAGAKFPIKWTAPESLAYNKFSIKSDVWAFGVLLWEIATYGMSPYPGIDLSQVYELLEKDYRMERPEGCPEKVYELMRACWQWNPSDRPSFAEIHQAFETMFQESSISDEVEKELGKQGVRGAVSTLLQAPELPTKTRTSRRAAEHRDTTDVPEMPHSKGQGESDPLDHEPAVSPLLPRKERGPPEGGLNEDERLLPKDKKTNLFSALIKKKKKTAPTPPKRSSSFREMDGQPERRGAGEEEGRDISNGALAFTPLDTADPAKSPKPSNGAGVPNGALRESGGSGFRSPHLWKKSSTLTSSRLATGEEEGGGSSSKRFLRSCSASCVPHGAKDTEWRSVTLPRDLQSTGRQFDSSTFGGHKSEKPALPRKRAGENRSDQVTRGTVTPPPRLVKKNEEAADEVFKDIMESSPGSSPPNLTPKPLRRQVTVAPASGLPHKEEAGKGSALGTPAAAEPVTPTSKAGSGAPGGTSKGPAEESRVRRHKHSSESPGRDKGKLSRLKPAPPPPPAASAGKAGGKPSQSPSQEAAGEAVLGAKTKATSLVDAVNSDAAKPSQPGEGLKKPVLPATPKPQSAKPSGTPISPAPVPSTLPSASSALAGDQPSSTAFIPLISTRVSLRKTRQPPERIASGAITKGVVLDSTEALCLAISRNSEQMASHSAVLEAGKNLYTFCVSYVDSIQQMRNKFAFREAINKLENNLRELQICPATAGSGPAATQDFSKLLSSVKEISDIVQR
Chain of Bcr/Abl fusion protein (P11274 whole entry, further chain, the tested form may be a part): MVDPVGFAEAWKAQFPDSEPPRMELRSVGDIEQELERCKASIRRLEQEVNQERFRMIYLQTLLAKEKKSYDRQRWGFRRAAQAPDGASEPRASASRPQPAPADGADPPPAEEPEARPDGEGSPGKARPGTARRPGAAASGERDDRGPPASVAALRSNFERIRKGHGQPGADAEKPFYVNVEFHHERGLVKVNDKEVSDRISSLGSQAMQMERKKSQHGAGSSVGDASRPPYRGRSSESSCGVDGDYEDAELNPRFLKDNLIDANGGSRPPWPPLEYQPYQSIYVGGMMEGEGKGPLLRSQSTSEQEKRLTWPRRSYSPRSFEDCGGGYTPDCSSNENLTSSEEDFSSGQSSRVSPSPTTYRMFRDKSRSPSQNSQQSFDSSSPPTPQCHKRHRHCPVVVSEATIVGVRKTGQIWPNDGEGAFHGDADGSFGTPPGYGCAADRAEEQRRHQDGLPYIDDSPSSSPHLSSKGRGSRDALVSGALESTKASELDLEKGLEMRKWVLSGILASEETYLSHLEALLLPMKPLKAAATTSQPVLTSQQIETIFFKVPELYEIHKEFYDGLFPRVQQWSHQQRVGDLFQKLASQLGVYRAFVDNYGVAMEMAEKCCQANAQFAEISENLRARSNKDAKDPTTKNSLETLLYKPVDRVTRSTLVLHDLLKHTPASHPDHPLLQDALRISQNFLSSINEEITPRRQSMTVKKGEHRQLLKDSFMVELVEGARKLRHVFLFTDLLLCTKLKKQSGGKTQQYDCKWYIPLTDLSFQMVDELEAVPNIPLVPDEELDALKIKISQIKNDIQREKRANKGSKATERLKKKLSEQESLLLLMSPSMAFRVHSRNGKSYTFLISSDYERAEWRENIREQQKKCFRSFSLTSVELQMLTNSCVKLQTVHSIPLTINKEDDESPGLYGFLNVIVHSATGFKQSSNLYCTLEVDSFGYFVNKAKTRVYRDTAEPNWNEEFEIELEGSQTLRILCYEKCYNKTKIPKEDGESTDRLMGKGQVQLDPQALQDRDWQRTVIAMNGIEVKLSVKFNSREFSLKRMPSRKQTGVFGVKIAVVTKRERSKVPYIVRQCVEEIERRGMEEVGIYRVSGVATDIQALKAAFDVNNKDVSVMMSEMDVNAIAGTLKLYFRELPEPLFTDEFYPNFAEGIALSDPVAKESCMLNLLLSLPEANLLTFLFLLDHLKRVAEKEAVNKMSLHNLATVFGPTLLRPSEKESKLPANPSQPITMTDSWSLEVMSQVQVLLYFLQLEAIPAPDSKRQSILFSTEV
Chain of Tyrosine-protein kinase ABL1 (P00519 whole entry): as the sequence (P00519 whole entry, the tested form may be a part) above
Chain of Proto-oncogene tyrosine-protein kinase Src (P12931 2-536 limits assumed): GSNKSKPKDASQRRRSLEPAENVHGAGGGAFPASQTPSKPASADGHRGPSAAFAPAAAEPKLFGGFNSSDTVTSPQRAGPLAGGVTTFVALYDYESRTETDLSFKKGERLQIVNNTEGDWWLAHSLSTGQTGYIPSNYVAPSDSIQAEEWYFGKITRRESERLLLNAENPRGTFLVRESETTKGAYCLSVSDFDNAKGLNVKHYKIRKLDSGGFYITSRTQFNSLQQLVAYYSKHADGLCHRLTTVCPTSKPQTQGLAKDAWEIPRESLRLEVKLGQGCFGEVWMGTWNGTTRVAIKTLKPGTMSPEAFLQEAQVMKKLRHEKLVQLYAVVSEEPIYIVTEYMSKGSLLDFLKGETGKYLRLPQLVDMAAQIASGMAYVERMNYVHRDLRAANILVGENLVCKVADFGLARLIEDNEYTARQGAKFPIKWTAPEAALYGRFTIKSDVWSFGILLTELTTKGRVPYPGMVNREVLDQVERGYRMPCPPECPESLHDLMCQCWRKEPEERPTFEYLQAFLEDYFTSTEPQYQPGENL

SMILES: Cc1cc(CN2CCN(C)CC2)ccc1NC(=O)c1cc(-c2ccc3c(c2)OCO3)cnc1O
- IC50 [5]: 14.5 µM
- IC50 (Insulin receptor): > 40 µM

SMILES: CN1CCN(CCc2ccc(NC(=O)c3cc(-c4ccc5c(c4)OCO5)cnc3O)cc2)CC1
- IC50 [1]: 4 µM
- IC50 [2]: > 20 µM
- IC50 [3]: > 20 µM
- IC50 (BaF3): 18 µM
- IC50 [5]: 0.4 µM
- Ki [5]: 0.2 µM
- IC50 (Bcr/Abl fusion protein): 9.5 µM
- IC50 (Jurkat): 4.7 µM

SMILES: CN1CCN(CCCc2ccc(NC(=O)c3cc(-c4ccc5c(c4)OCO5)cnc3O)cc2)CC1
- IC50 [4]: > 20 µM
- IC50 [1]: > 20 µM
- IC50 [2]: > 20 µM
- IC50 [3]: > 20 µM
- IC50 (BaF3): 16.2 µM
- IC50 [5]: 1.3 µM
- Ki [5]: 1.1 µM
- IC50 (Insulin receptor): 10.1 µM
- Ki (Insulin receptor): 9 µM
- IC50 (Bcr/Abl fusion protein): 14.6 µM
- IC50 (Jurkat): 9.3 µM

SMILES: CN1CCN(Cc2ccc(NC(=O)c3cc(-c4ccncc4)cnc3O)cc2)CC1
- IC50 [5]: 19.5 µM
- IC50 (Insulin receptor): > 40 µM

SMILES: COc1ccc(-c2c[nH]c(=O)c(C(=O)Nc3ccc(CN4CCN(C)CC4)cc3)c2)cn1
- IC50 [5]: 3 µM
- IC50 (Insulin receptor): 13.8 µM

SMILES: COc1ncc(-c2ccc3c(c2)OCO3)cc1C(=O)Nc1ccc(CN2CCN(C)CC2)cc1
- IC50 [5]: 20.3 µM
- IC50 (Insulin receptor): > 40 µM

SMILES: CN1CCN(Cc2ccc(NC(=O)c3cc(-c4ccc5c(c4)OCO5)cn(C)c3=O)cc2)CC1
- IC50 [5]: > 40 µM
- IC50 (Insulin receptor): > 40 µM

Second part, led by results:

- IC50 [1]: 5 µM
- IC50 [2]: > 20 µM
- IC50 [3]: > 20 µM
- IC50 (Bcr/Abl fusion protein): 3.8 µM
SMILES: CN1CCN(c2ccc(NC(=O)c3cc(-c4ccc5c(c4)OCO5)c[nH]c3=O)cc2)CC1

- IC50 [4]: > 20 µM
- IC50 [1]: > 20 µM
- IC50 [2]: > 20 µM
- IC50 [3]: > 20 µM
- IC50 [5]: 0.9 µM
- Ki [5]: 0.5 µM
- IC50 (Bcr/Abl fusion protein): 12.9 µM
- IC50 (Jurkat): 9.2 µM
SMILES: CN1CCN(Cc2ccc(NC(=O)c3cc(-c4ccc5c(c4)OCO5)cnc3O)cc2)CC1
- IC50 (BaF3): > 25 µM

- IC50 [5]: 13.8 µM
- IC50 (Insulin receptor): > 40 µM
SMILES: COc1cc(CN2CCN(C)CC2)ccc1NC(=O)c1cc(-c2ccc3c(c2)OCO3)cnc1O

- IC50 [5]: 3.7 µM
- IC50 (Insulin receptor): 32.5 µM
SMILES: CN1CCN(Cc2ccc(N(C)C(=O)c3cc(-c4ccc5c(c4)OCO5)cnc3O)cc2)CC1

- IC50 [5]: 5.5 µM
- IC50 (Insulin receptor): 7 µM
SMILES: CN1CCN(Cc2ccc(NC(=O)c3cc(-c4ccc5nccnc5c4)c[nH]c3=O)cc2)CC1

- IC50 [5]: 3.8 µM
- IC50 (Insulin receptor): 16 µM
SMILES: Cc1nc2cc(-c3cnc(O)c(C(=O)Nc4ccc(CN5CCN(C)CC5)cc4)c3)ccc2s1

- IC50 [5]: 7.5 µM
- IC50 (Insulin receptor): 33.5 µM
SMILES: COc1cc(-c2c[nH]c(=O)c(C(=O)Nc3ccc(CN4CCN(C)CC4)cc3)c2)cc(OC)c1OC

- IC50 [5]: 26.8 µM
- IC50 (Insulin receptor): 27.3 µM
SMILES: CN1CCN(Cc2ccc(NC(=O)c3cc(-c4ccc5c(c4)OCO5)cnc3Cl)cc2)CC1
